The record followed here is patent US7285548B2, “Urea substituted benzothiazoles” (Hoffmann-La Roche Inc., priority 2003, dated 2007).

Each structure is given as a SMILES string.

Broadly, the melting point is the temperature, or range, at which the solid turns liquid.

For series [1], the target named is T1, human adenosine A2A receptor (Homo sapiens, UniProt P29274).
T1 construct: expressed in transfected cells; host or cells: CHO cells, semliki forest virus expression system; membrane preparation
In words: [3H]-SCH-58261 binding assay, human adenosine A2A receptor (CHO cell membranes, SPA). Particulars: recombinant human A2A receptor in CHO membranes; [3H]-SCH-58261 1 nM; Ki by Cheng-Prussoff equation; read-out: hA2 (pKi) (converted). As to the method: Human Adenosine A2A Receptor
The human adenosine A2A receptor was recombinantly expressed in Chinese hamster ovary (CHO) cells using the semliki forest virus expression system. Cells were harvested, washed twice by centrifugation, homogenized and again washed by centrifugation. The final washed membrane pellet was suspended in a Tris (50 mM) buffer containing 120 mM NaCl, 5 mM KCl, 2 mM CaCl2 and 10 mM MgCl2 (pH 7.4) (buffer A). The [^3H]-SCH-58261 (Dionisotti et al., 1997, Br J Pharmacol 121, 353; 1nM) binding assay was carried out in 96-well plates in the presence of 2.5 μg of membrane protein, 0.5 mg of Ysi-poly-l-lysine SPA beads and 0.1 U adenosine deaminase in a final volume of 200 μl of buffer A. Non-specific binding was defined using xanthine amine congener (XAC; 2 μM). Compounds were tested at 10 concentrations from 10 μM-0.3 nM. All assays were conducted in duplicate and repeated at least two times. Assay plates were incubated for 1 hour at room temperature before centrifugation and then bound ligand determined using a Packard Topcount scintillation counter. IC50 values were calculated using a non-linear curve fitting program and Ki values calculated using the Cheng-Prussoff equation.

T1 sequence (P29274 whole entry): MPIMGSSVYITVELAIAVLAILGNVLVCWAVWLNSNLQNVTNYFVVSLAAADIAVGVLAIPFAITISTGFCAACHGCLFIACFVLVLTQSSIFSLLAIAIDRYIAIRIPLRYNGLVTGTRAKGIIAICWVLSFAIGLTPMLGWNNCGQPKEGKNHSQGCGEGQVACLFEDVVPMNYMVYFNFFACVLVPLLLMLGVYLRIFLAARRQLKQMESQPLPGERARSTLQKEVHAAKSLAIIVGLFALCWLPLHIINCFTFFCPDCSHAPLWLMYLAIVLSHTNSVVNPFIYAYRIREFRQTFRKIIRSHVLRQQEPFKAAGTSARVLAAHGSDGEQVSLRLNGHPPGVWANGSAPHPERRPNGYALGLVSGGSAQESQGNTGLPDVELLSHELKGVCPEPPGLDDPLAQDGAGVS

`COc1ccc(N2CCOCC2)c2sc(NC(=O)N(C)C3CCC(CO)C3)nc12` (racemic) [Example 5, (rac),(cis)-1-(3-Hydroxymethyl-cyclopentyl)-3-(4-methoxy-7-morpholin-4-yl-benzothiazol-2-yl)-1-methyl-urea] had a melting point of 115 to 118 °C. In series [1], the Ki was 0.00398 µM.
For `COc1ccc(N2CCOCC2)c2sc(NC(=O)N(C)C3CC4CCC3C4)nc12` (racemic) [Example 6, 1-(endo)-(rac)-Bicyclo[2.2.1]hept-2-yl-3-(4-methoxy-7-morpholin-4-yl-benzothiazol-2-yl)-1-methyl-urea], in that order: 199 to 202 °C and 0.00794 µM.
Consider `COc1ccc(N2CCOCC2)c2sc(NC(=O)N(C)C3CC4CCC3O4)nc12` (racemic) [Example 9, (rac)-(endo)-3-(4-Methoxy-7-morpholin-4-yl-benzothiazol-2-yl)-1-methyl-1-(7-oxa-bicyclo[2.2.1]hept-2-yl)-urea], for which the melting point fell in the range of 191 to 193 °C. Also, the Ki in series [1] was 0.0126 µM.
Molecule `COc1ccc(N2CCOCC2)c2sc(NC(=O)N(C)C3CC4CC3CC4O)nc12` (racemic) [Example 10, (rac)-1-(5-exo-Hydroxy-bicyclo[2.2.1]hept-2-exo-yl)-3-(4-methoxy-7-morpholin-4-yl-benzothiazol-2-yl)-1-methyl-urea] displayed a melting point of 189 °C. Further, in series [1], the Ki was 0.00794 µM.
For `COc1ccc(N2CCOCC2)c2sc(NC(=O)N(C)C3CC4CCC3O4)nc12` (single isomer, unassigned) [Example 7, (exo)-(+)-3-(4-Methoxy-7-morpholin-4-yl-benzothiazol-2-yl)-1-methyl-1-(7-oxa-bicyclo[2.2.1]hept-2-yl)-urea], in that order: 202 to 204 °C and 0.00316 µM.
Take `COc1ccc(N2CCOCC2)c2sc(NC(=O)N(C)C3CC4CCC3O4)nc12` (single isomer, unassigned) [Example 8, (exo)-(−)-3-(4-Methoxy-7-morpholin-4-yl-benzothiazol-2-yl)-1-methyl-1-(7-oxa-bicyclo[2.2.1]hept-2-yl)-urea]: the melting point lay in the range of 202 to 203 °C. Further, the Ki in series [1] was 0.01 µM.
`COc1ccc(N2CCOCC2)c2sc(NC(=O)N(C)C3CCC(C(F)(F)F)CC3)nc12` (stereo not drawn) [Example 1, 3-(4-Methoxy-7-morpholin-4-yl-benzothiazol-2-yl)-1-methyl-1-(4-trifluoromethyl-cyclohexyl)-urea] yielded a melting point of 157 to 167 °C. In addition, the Ki in series [1] was 0.02 µM.
With `COc1ccc(N2CCOCC2)c2sc(NC(=O)N(C)[C@H]3CC[C@H](C)CC3)nc12` [Example 2, (trans)-3-(4-Methoxy-7-morpholin-4-yl-benzothiazol-2-yl)-1-methyl-1-(4-methyl-cyclohexyl)-urea], the melting point was 171 to 173 °C. Besides, in series [1], the Ki is 0.0158 µM.
Regarding `COc1ccc(N2CCOCC2)c2sc(NC(=O)N(C)[C@H]3CC[C@H](CO)CC3)nc12` [Example 3, (trans)-1-(4-Hydroxymethyl-cyclohexyl)-3-(4-methoxy-7-morpholin-4-yl-benzothiazol-2-yl)-1-methyl-urea], the melting point is 190 °C (dec.). The Ki in series [1] is 0.0158 µM.
For `COC[C@H]1CC[C@H](N(C)C(=O)Nc2nc3c(OC)ccc(N4CCOCC4)c3s2)CC1` [Example 4, (trans)-1-(4-Methoxymethyl-cyclohexyl)-3-(4-methoxy-7-morpholin-4-yl-benzothiazol-2-yl)-1-methyl-urea], in that order: 141 to 143 °C and 0.02 µM.
On the same counts, the results for `COc1ccc(N2CCOCC2)c2sc(NC(=O)N(C)C34CC5CC(CC(C5)C3)C4)nc12` [Example 12, 1-Adamantan-1-yl-3-(4-methoxy-7-morpholin-4-yl-benzothiazol-2-yl)-1-methyl-urea] are 165 to 176 °C and 0.0501 µM.
For `COc1ccc(N2CCOCC2)c2sc(NC(=O)N3CC4CCC(C3)O4)nc12` [Example 13, 8-Oxa-3-aza-bicyclo[3.2.1]octane-3-carboxylic acid (4-methoxy-7-morpholin-4-yl-benzothiazol-2-yl)-amide], in that order: 229 to 231 °C and 0.01 µM.
